Source: patent publication US20140000882A1, “PETROLEUM RECOVERY PROCESS AND SYSTEM” (Shell Oil Company, priority 2012, published 2014)

Assay: Oil recovery from formation core by brine displacement followed by DMS displacement
Settings: after waterflooding with brine
Experimental: Incremental recovery of oil from a formation core using an oil recovery formulation consisting of dimethyl sulfide following oil recovery from the core by water-flooding was measured to evaluate the effectiveness of DMS as a tertiary oil recovery agent.
Two 5.02 cm long Berea sandstone cores with a core diameter of 3.78 cm and a permeability between 925 and 1325 mD were saturated with a brine having a composition as set forth in Table 7.
After saturation of the cores with brine, the brine was displaced by a Middle Eastern Asphaltic crude oil having the characteristics as set forth above in Table 3 to saturate the cores with oil.
Oil was recovered from each oil saturated core by the addition of brine to the core under pressure and by subsequent addition of DMS to the core under pressure. Each core was treated as follows to determine the amount of oil recovered from the core by addition of brine followed by addition of DMS. Oil was initially displaced from the core by addition of brine to the core under pressure. A confining pressure of 1 MPa was applied to the core during addition of the brine, and the flow rate of brine to the core was set at 0.05 ml/min. The core was maintained at a temperature of 50° C. during displacement of oil from the core with brine. […]

CSC [Dimethyl Sulfide, dimethyl sulfide]
oil remaining in the core after the waterflood recovered: approximately 60%
